# Read-outs that look alike come from different tables or passages of the source.
# Tests used:
# Test in all cases: Test C pre/postemergence
# Type in all cases: in vivo
# [1] = system: Surinam grass (Brachiaria decumbens); details: Urochloa decumbens; for pest or weed control at 125 g/ha: 125 g ai/ha; for pest or weed control at 500 g/ha: 500 g ai/ha; for pest or weed control at 62 g/ha: 62 g ai/ha; for pest or weed control at 250 g/ha: 250 g ai/ha
# Procedure, shortened: (§1)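 Percent control is a visual rating (0 none, 100 complete) taken against untreated plants after 12 to 14 days of greenhouse growth. Applications were made preemergence to seeded pots and postemergence to plants at the 1- to 4-leaf stage, in a non-phytotoxic surfactant-containing solvent.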
# [2] = system: common (oilseed) sunflower (Helianthus annuus); details: Helianthus annuus, pre-emergence, Preemergence, read-out: Plant response rating, Sunflower
# Procedure, shortened: as §1
# [3] = system: common ragweed (Ambrosia elatior); details: Ambrosia artemisiifolia; for pest or weed control at 62 g/ha: 62 g ai/ha; for pest or weed control at 125 g/ha: 125 g ai/ha; for pest or weed control at 250 g/ha: 250 g ai/ha; for pest or weed control at 500 g/ha: 500 g ai/ha
# Procedure, shortened: as §1
# [4] = system: giant foxtail (Setaria faberii); details: Setaria faberi; for pest or weed control at 125 g/ha: 125 g ai/ha; for pest or weed control at 500 g/ha: 500 g ai/ha; for pest or weed control at 62 g/ha: 62 g ai/ha; for pest or weed control at 250 g/ha: 250 g ai/ha
# Procedure, shortened: as §1
# [5] = system: johnsongrass (Sorghum halepense); details: Sorghum halepense; for pest or weed control at 62 g/ha: 62 g ai/ha; for pest or weed control at 125 g/ha: 125 g ai/ha; for pest or weed control at 250 g/ha: 250 g ai/ha; for pest or weed control at 500 g/ha: 500 g ai/ha
# Procedure, shortened: as §1
# kochia (Kochia scoparia) = details: Bassia scoparia; for pest or weed control at 62 g/ha: 62 g ai/ha; for pest or weed control at 125 g/ha: 125 g ai/ha; for pest or weed control at 250 g/ha: 250 g ai/ha; for pest or weed control at 500 g/ha: 500 g ai/ha
# Procedure, shortened: as §1
# [6] = post-emergence, Postemergence, scale 0 to 100 (0 no effect, 100 complete control), read-out: Surinam Grass plant response rating
# [7] = post-emergence, Postemergence, scale 0 to 100, read-out: Plant response rating, Surinam Grass
# [8] = pre-emergence, Preemergence, scale 0 to 100, read-out: Plant response rating, Surinam Grass
# [9] = post-emergence, Postemergence, scale 0 to 100 (0 no effect, 100 complete control), read-out: Ragweed plant response rating
# [10] = post-emergence, Postemergence, scale 0 to 100, read-out: Plant response rating, Ragweed
# [11] = pre-emergence, Preemergence, scale 0 to 100, read-out: Plant response rating, Ragweed
# [12] = post-emergence, Postemergence, scale 0 to 100 (0 no effect, 100 complete control), read-out: Foxtail, Giant plant response rating
# [13] = post-emergence, Postemergence, scale 0 to 100, read-out: Plant response rating, Foxtail, Giant
# [14] = pre-emergence, Preemergence, scale 0 to 100, read-out: Plant response rating, Foxtail, Giant
# [15] = post-emergence, Postemergence, scale 0 to 100 (0 no effect, 100 complete control), read-out: Johnsongrass plant response rating
# [16] = post-emergence, Postemergence, scale 0 to 100, read-out: Plant response rating, Johnsongrass
# [17] = pre-emergence, Preemergence, scale 0 to 100, read-out: Plant response rating, Johnsongrass
# [18] = post-emergence, Postemergence, scale 0 to 100 (0 no effect, 100 complete control), read-out: Kochia plant response rating
# [19] = post-emergence, Postemergence, scale 0 to 100, read-out: Plant response rating, Kochia
# [20] = pre-emergence, Preemergence, scale 0 to 100, read-out: Plant response rating, Kochia
compound,measurement,setting,value
"CCOC(=O)c1nc(C2CC2)nc(N)c1Cl [Compound 4, ethyl 6-amino-5-chloro-2-cyclopropyl-4-pyrimidinecarboxylate]",pest or weed control at 125 g/ha,[1]; [6],75%
same,pest or weed control at 500 g/ha,[1]; [7],95%
same,pest or weed control at 62 g/ha,[1]; [6],60%
same,pest or weed control at 250 g/ha,[1]; [7],75%
same,pest or weed control at 62 g/ha,"[1]; pre-emergence, Preemergence, scale 0 to 100, 0 no effect, 100 complete control, read-out: Plant response rating, Surinam Grass",0%
same,pest or weed control at 125 g/ha,[1]; [8],65%
same,pest or weed control at 250 g/ha,[1]; [8],85%
same,pest or weed control at 500 g/ha,[1]; [8],100%
same,pest or weed control at 62 g/ha,"[2]; 62 g ai/ha, scale 0 to 100, 0 no effect, 100 complete control",100%
same,pest or weed control at 125 g/ha,"[2]; 125 g ai/ha, scale 0 to 100",100%
same,pest or weed control at 250 g/ha,"[2]; 250 g ai/ha, scale 0 to 100",100%
same,pest or weed control at 500 g/ha,"[2]; 500 g ai/ha, scale 0 to 100",100%
same,pest or weed control at 62 g/ha,[3]; [9],100%
same,pest or weed control at 125 g/ha,[3]; [9],100%
same,pest or weed control at 250 g/ha,[3]; [10],100%
same,pest or weed control at 500 g/ha,[3]; [10],100%
same,pest or weed control at 62 g/ha,"[3]; pre-emergence, Preemergence, scale 0 to 100, 0 no effect, 100 complete control, read-out: Plant response rating, Ragweed",100%
same,pest or weed control at 125 g/ha,[3]; [11],100%
same,pest or weed control at 250 g/ha,[3]; [11],100%
same,pest or weed control at 500 g/ha,[3]; [11],100%
same,pest or weed control at 125 g/ha,[4]; [12],75%
same,pest or weed control at 500 g/ha,[4]; [13],95%
same,pest or weed control at 62 g/ha,[4]; [12],60%
same,pest or weed control at 250 g/ha,[4]; [13],85%
same,pest or weed control at 62 g/ha,"[4]; pre-emergence, Preemergence, scale 0 to 100, 0 no effect, 100 complete control, read-out: Plant response rating, Foxtail, Giant",0%
same,pest or weed control at 125 g/ha,[4]; [14],40%
same,pest or weed control at 250 g/ha,[4]; [14],75%
same,pest or weed control at 500 g/ha,[4]; [14],85%
same,pest or weed control at 62 g/ha,[5]; [15],70%
same,pest or weed control at 125 g/ha,[5]; [15],80%
same,pest or weed control at 250 g/ha,[5]; [16],95%
same,pest or weed control at 500 g/ha,[5]; [16],95%
same,pest or weed control at 62 g/ha,"[5]; pre-emergence, Preemergence, scale 0 to 100, 0 no effect, 100 complete control, read-out: Plant response rating, Johnsongrass",50%
same,pest or weed control at 125 g/ha,[5]; [17],70%
same,pest or weed control at 250 g/ha,[5]; [17],90%
same,pest or weed control at 500 g/ha,[5]; [17],95%
same,pest or weed control at 62 g/ha,kochia (Kochia scoparia); [18],100%
same,pest or weed control at 125 g/ha,kochia (Kochia scoparia); [18],100%
same,pest or weed control at 250 g/ha,kochia (Kochia scoparia); [19],100%
same,pest or weed control at 500 g/ha,kochia (Kochia scoparia); [19],100%
same,pest or weed control at 62 g/ha,"kochia (Kochia scoparia); pre-emergence, Preemergence, scale 0 to 100, 0 no effect, 100 complete control, read-out: Plant response rating, Kochia",95%
same,pest or weed control at 125 g/ha,kochia (Kochia scoparia); [20],100%
same,pest or weed control at 250 g/ha,kochia (Kochia scoparia); [20],100%
same,pest or weed control at 500 g/ha,kochia (Kochia scoparia); [20],100%
